The structures appear in SMILES notation.

T1 sequence (P11712 whole entry): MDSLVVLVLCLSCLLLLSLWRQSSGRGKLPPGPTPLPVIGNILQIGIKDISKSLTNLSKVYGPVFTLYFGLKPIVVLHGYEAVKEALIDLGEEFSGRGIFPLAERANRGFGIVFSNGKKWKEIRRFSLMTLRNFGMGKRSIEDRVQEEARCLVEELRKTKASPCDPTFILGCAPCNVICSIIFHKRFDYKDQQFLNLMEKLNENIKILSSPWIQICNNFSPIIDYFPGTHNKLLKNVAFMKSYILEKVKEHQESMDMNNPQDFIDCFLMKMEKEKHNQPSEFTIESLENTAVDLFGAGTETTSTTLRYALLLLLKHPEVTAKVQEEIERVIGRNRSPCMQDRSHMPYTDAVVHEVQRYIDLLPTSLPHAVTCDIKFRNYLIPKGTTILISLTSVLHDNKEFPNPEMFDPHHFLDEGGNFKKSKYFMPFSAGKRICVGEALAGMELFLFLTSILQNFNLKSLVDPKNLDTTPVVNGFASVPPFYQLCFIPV

This test addresses T1, CYP2C9 (Homo sapiens, UniProt P11712).
T1 construct: Human liver microsome (20 mg protein/mL, 5 μL, Xenotech LLC, purchased from Lenexa KS); tissue Xenotech LLC; host or cells: human liver microsome
The test is described as follows: CYP inhibitory test using human liver microsome. It counts as in vitro ADME. Conditions: model substrate diclofenac, 37° C. 10 min, read-out: CYP2C9 inhibition IC50. The procedure:
Human liver microsome (20 mg protein/mL, 5 μL, Xenotech LLC, purchased from Lenexa KS) was suspended in 100 mM potassium phosphate buffer (70 μL, pH 7.4), mixed with a solution (0.5 μL) of the Example compound dissolved in DMSO and preincubated at 37° C. for 5 min. NADPH producing system coenzyme solution (β-nicotinamide adenine dinucleotide phosphate: 5.2 mM, D-glucose-6-phosphate: 13.2 mM, magnesium chloride: 13.2 mM, glucose-6-phosphate dehydrogenase: 1.8 U/mL) 25 μL, and a model substrate (CYP3A4: midazolam 1 mM, CYP2D6: bufuralol 1 mM, CYP2C9: diclofenac 2 mM) 0.5 μL dissolved in DMSO were added to start the reaction. After incubation at 37° C. for 10 min., acetonitrile (200 μL) containing an internal standard substance (propranolol 1 μM) was added and the mixture was centrifuged (room temperature, 3000 rpm, 20 min). The amount of the metabolite produced from each model substrate in the supernatant was measured by high performance liquid chromatography/mass spectrometry (LC/MS/MS) and each CYP enzyme activity was determined. The concentration showing 50% inhibition (IC50) was calculated relative to the enzyme activity without addition of Example compound (DMSO 0.5 μL added) as 100%.
For the compound `O=C(c1cc(Cl)c(O)c(Cl)c1)N1CCCCc2ccccc21` [Example 27, (3,5-dichloro-4-hydroxyphenyl)-(2,3,4,5-tetrahydrobenzo[b]azepin-1-yl)-methanone], the IC50 was found to be 21 µM.
With `Cc1ccc2c(c1)N(C(=O)c1cc(Br)c(O)c(Br)c1)CCO2` [Example 81, (3,5-dibromo-4-hydroxyphenyl)-(6-methyl-2,3-dihydrobenzo[1,4]oxazin-4-yl)-methanone], the IC50 came out at 13 µM.
With `O=C(c1cc(Cl)c(O)c(Cl)c1)N1CCN(C(=O)c2cc(Cl)c(O)c(Cl)c2)c2ccccc21` [Example 53, [4-(3,5-dichloro-4-hydroxybenzoyl)-3,4-dihydro-2H-quinoxalin-1-yl]-(3,5-dichloro-4-hydroxyphenyl)-methanone], the IC50 was 6 µM.
Take `NS(=O)(=O)c1ccc2c(c1)N(C(=O)c1cc(Cl)c(O)c(Cl)c1)CCO2` [Example 25, 4-(3,5-dichloro-4-hydroxybenzoyl)-3,4-dihydro-2H-benzo[1,4]oxazine-6-sulfonamide]: the IC50 was over 50 µM.
`O=C(c1cc(Cl)c(O)c(Cl)c1)N1CCOc2ccc(CO)cc21` [Example 56, (3,5-dichloro-4-hydroxyphenyl)-(6-hydroxymethyl-2,3-dihydrobenzo[1,4]oxazin-4-yl)-methanone]: the IC50 was over 50 µM.
Take `O=C(c1cc(F)c(O)c(F)c1)N1CCOc2ccccc21` [Example 6, (3,5-difluoro-4-hydroxyphenyl)-(2,3-dihydrobenzo[1,4]oxazin-4-yl)-methanone]: the IC50 is over 50 µM.
Consider `O=C(c1cc(Cl)c(O)c(Cl)c1)N1CCOc2ccc(F)cc21` [Example 44, (3,5-dichloro-4-hydroxyphenyl)-(6-fluoro-2,3-dihydrobenzo[1,4]oxazin-4-yl)-methanone], for which the IC50 stood at 31 µM.
For `CC(C)(C)c1ccc2c(c1)N(C(=O)c1cc(Cl)c(O)c(Cl)c1)CCO2` [Example 23, (6-tert-butyl-2,3-dihydrobenzo[1,4]oxazin-4-yl)-(3,5-dichloro-4-hydroxyphenyl)-methanone], the IC50 came out at 19 µM.
As to `O=C(c1cc(Cl)c(O)c(Cl)c1O)N1CCOc2ccccc21` [Example 50, (3,5-dichloro-2,4-dihydroxyphenyl)-(2,3-dihydrobenzo[1,4]oxazin-4-yl)-methanone], the IC50 came to 15 µM.
For `O=C(O)c1cccc2c1OCCN2C(=O)c1cc(Cl)c(O)c(Cl)c1` [Example 62, 4-(3,5-dichloro-4-hydroxybenzoyl)-3,4-dihydro-2H-benzo[1,4]oxazine-8-carboxylic acid], the IC50 was over 50 µM.
Regarding `O=C(c1cc(Br)c(O)c(Br)c1)N1CCOc2ccc([N+](=O)[O-])cc21` [Example 69, (3,5-dibromo-4-hydroxyphenyl)-(6-nitro-2,3-dihydrobenzo[1,4]oxazin-4-yl)-methanone], the IC50 was determined as 21 µM.
As for `O=C(c1cc(Cl)c(O)c(Cl)c1)N1CCOc2cc(O)ccc21` [Example 20, (3,5-dichloro-4-hydroxyphenyl)-(7-hydroxy-2,3-dihydrobenzo[1,4]oxazin-4-yl)-methanone], the IC50 worked out at 13 µM.
For `CCS(=O)(=O)c1ccc2c(c1)N(C(=O)c1cc(Cl)c(O)c(Cl)c1)CCO2` [Example 84, (3,5-dichloro-4-hydroxyphenyl)-(6-ethanesulfonyl-2,3-dihydrobenzo[1,4]oxazin-4-yl)-methanone] the value was 15 µM; for `COc1c(Cl)cc(C(=O)N2CCOc3ccccc32)cc1Cl` [Example 86, (3,5-dichloro-4-methoxyphenyl)-(2,3-dihydrobenzo[1,4]oxazin-4-yl)-methanone], over 50 µM.
Turning to `Oc1c(Cl)cc(C(=S)N2CCOc3ccccc32)cc1Cl` [Example 11, (3,5-dichloro-4-hydroxyphenyl)-(2,3-dihydrobenzo[1,4]oxazin-4-yl)-methanethione], the IC50 worked out at 12 µM.
As to `CS(=O)(=O)Nc1ccc2c(c1)OCCN2C(=O)c1cc(Cl)c(O)c(Cl)c1` [Example 72, N-[4-(3,5-dichloro-4-hydroxybenzoyl)-3,4-dihydro-2H-benzo[1,4]oxazin-7-yl]-methanesulfonamide], the IC50 came out at 13 µM.
Consider `O=C(c1ccc(O)c(C(F)(F)F)c1)N1CCOc2ccccc21` [Example 39, (2,3-dihydrobenzo[1,4]oxazin-4-yl)-(4-hydroxy-3-trifluoromethylphenyl)-methanone], for which the IC50 worked out at 21 µM.
For `Cc1ccc2c(c1)N(C(=O)c1cc(Cl)c(O)c(Cl)c1)CCO2` [Example 12, (3,5-dichloro-4-hydroxyphenyl)-(6-methyl-2,3-dihydrobenzo[1,4]oxazin-4-yl)-methanone] the value was 22 µM; for `O=C(c1cc(Cl)c(O)c(Cl)c1)N1CCOc2ccc(Cl)cc21` [Example 51, (6-chloro-2,3-dihydrobenzo[1,4]oxazin-4-yl)-(3,5-dichloro-4-hydroxyphenyl)-methanone], 16 µM.
With `O=C(c1cc(Br)c(O)c(Br)c1)N1CCOc2ccc(F)cc21` [Example 79, (3,5-dibromo-4-hydroxyphenyl)-(6-fluoro-2,3-dihydrobenzo[1,4]oxazin-4-yl)-methanone], the IC50 amounted to 13 µM.
Turning to `COC(=O)c1cccc2c1OCCN2C(=O)c1cc(Cl)c(O)c(Cl)c1` [Example 61, methyl 4-(3,5-dichloro-4-hydroxybenzoyl)-3,4-dihydro-2H-benzo[1,4]oxazine-8-carboxylate], the 50% inhibitory concentration (IC50) was 43 µM.
For `O=C(O)COc1c(Cl)cc(C(=O)N2CCOc3ccccc32)cc1Cl` [Example 92, [2,6-dichloro-4-(2,3-dihydrobenzo[1,4]oxazine-4-carbonyl)phenoxy]acetic acid] the value was over 50 µM; for `CCN(CC)S(=O)(=O)c1ccc2c(c1)N(C(=O)c1cc(Cl)c(O)c(Cl)c1)CCO2` [Example 21, 4-(3,5-dichloro-4-hydroxybenzoyl)-3,4-dihydro-2H-benzo[1,4]oxazine-6-sulfonic acid diethylamide], 17 µM.
Take `O=C(c1cc(Br)c(O)c(Br)c1)N1CCOc2ccc3ccccc3c21` [Example 80, (3,5-dibromo-4-hydroxyphenyl)-(2,3-dihydronaphtho[2,1-b][1,4]oxazin-1-yl)-methanone]: the IC50 is 5 µM.
For `COC(=O)c1cccc(C(=O)N2CCOc3ccccc32)c1` [Example 48, methyl 3-(2,3-dihydrobenzo[1,4]oxazine-4-carbonyl)benzoate] the value was over 50 µM.
With `O=C(c1ccc(O)c(Br)c1)N1CCOc2ccccc21` [Example 2, (3-bromo-4-hydroxyphenyl)-(2,3-dihydrobenzo[1,4]oxazin-4-yl)-methanone], the IC50 was found to be 37 µM.
`O=C(O)c1ccc2c(c1)N(C(=O)c1cc(Cl)c(O)c(Cl)c1)CCO2` [Example 57, 4-(3,5-dichloro-4-hydroxybenzoyl)-3,4-dihydro-2H-benzo[1,4]oxazine-6-carboxylic acid]: the IC50 is over 50 µM.
For `O=C(O)c1ccc(C(=O)N2CCOc3ccccc32)cc1` [Example 47, 4-(2,3-dihydrobenzo[1,4]oxazine-4-carbonyl)benzoic acid], the IC50 was over 50 µM.
For `Cc1cccc2c1N(C(=O)c1cc(Cl)c(O)c(Cl)c1)CCO2` [Example 14, (3,5-dichloro-4-hydroxyphenyl)-(5-methyl-2,3-dihydrobenzo[1,4]oxazin-4-yl)-methanone] the value was 16 µM; for `CN(C)S(=O)(=O)c1ccc2c(c1)N(C(=O)c1cc(Cl)c(O)c(Cl)c1)CCO2` [Example 35, 4-(3,5-dichloro-4-hydroxybenzoyl)-3,4-dihydro-2H-benzo[1,4]oxazine-6-sulfonic acid dimethylamide], 14 µM.
Consider `Cc1ccc2c(c1)OCCN2C(=O)c1cc(Cl)c(O)c(Cl)c1` [Example 13, (3,5-dichloro-4-hydroxyphenyl)-(7-methyl-2,3-dihydrobenzo[1,4]oxazin-4-yl)-methanone], for which the IC50 came out at 18 µM.
`O=C(O)c1ccccc1C(=O)N1CCOc2ccccc21` [Example 45, 2-(2,3-dihydrobenzo[1,4]oxazine-4-carbonyl)benzoic acid]: the IC50 was over 50 µM.
In the case of `COc1ccc2c(c1)N(C(=O)c1cc(Cl)c(O)c(Cl)c1)CCO2` [Example 17, (3,5-dichloro-4-hydroxyphenyl)-(6-methoxy-2,3-dihydrobenzo[1,4]oxazin-4-yl)-methanone], the IC50 amounted to 33 µM.
As to `COC(=O)c1ccc2c(c1)OCCN2C(=O)c1cc(Cl)c(O)c(Cl)c1` [Example 59, methyl 4-(3,5-dichloro-4-hydroxybenzoyl)-3,4-dihydro-2H-benzo[1,4]oxazine-7-carboxylate], the IC50 worked out at 8 µM.
For `CS(=O)(=O)N1CCN(C(=O)c2cc(Cl)c(O)c(Cl)c2)c2ccccc21` [Example 83, (3,5-dichloro-4-hydroxyphenyl)-(4-methanesulfonyl-3,4-dihydro-2H-quinoxalin-1-yl)-methanone], the IC50 was over 50 µM.
As for `O=C(c1cc(Cl)c(O)c(Cl)c1)N1CCOc2cc([N+](=O)[O-])ccc21` [Example 70, (3,5-dichloro-4-hydroxyphenyl)-(7-nitro-2,3-dihydrobenzo[1,4]oxazin-4-yl)-methanone], the IC50 is 20 µM.
Consider `CN1CCN(C(=O)c2cc(Cl)c(O)c(Cl)c2)c2ccccc21` [Example 74, (3,5-dichloro-4-hydroxyphenyl)-(4-methyl-3,4-dihydro-2H-quinoxalin-1-yl)-methanone], for which the IC50 was 33 µM.
